Test results taken from PubChem BioAssay (NCI).
“And” between values parts separate entries of the source, which are not always exact repeats. Equal entries are not always repeated.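 Cultured in 96-well plates, cells were exposed to test compound for 48 hours across five concentrations. GI50 marks 50% less growth. The concentration for full growth arrest is given as TGI.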

Tests used:
Assay in all cases: NCI tumour cell line growth inhibition, 48 h
A549 NSCLC = test system: A549 NSCLC
SK-MEL-2 melanoma = test system: SK-MEL-2 melanoma
UACC-62 melanoma = test system: UACC-62 melanoma
IGROV1 ovarian = test system: IGROV1 ovarian
786-0 renal = test system: 786-0 renal
MCF7 breast = test system: MCF7 breast
PC-3 prostate = test system: PC-3 prostate
MDA-MB-231 breast = test system: MDA-MB-231 breast
HT29 colon = test system: HT29 colon
NCI-H226 lung = test system: NCI-H226 lung

Row | Structure (SMILES) | TGI (A549 NSCLC) [µM] | TGI (SK-MEL-2 melanoma) [µM] | TGI (UACC-62 melanoma) | TGI (IGROV1 ovarian) | TGI (786-0 renal) [µM] | TGI (MCF7 breast) | TGI (PC-3 prostate) | TGI (MDA-MB-231 breast) | TGI (HT29 colon) [µM] | TGI (NCI-H226 lung) [µM] | GI50 (UACC-62 melanoma) [µM] | GI50 (MCF7 breast) [nM]
1 | COC(=O)C1CCC(=S)N1C(C)=O (stereo not given) | > 100 | > 100 | > 100 µM | > 100 µM | > 100 | > 100 µM | > 100 µM | > 100 µM | > 100 | – | – | –
2 | CSC(=NCCCN=C(NS(=O)(=O)c1ccc(Cl)cc1)SC)NS(=O)(=O)c1ccc(Cl)cc1 | – | 43.6 | > 100 µM | > 100 µM | > 100 | 52.8 µM | 35.2 µM | > 100 µM | > 100 | – | – | –
3 | NNC(=O)COc1nc(-c2cccs2)nc2ccc(I)cc12 | 43.2 | 71.3 | 45.1 µM | 56.3 µM | 78.8 | 88.7 µM | > 100 µM | – | > 100 | 83.9 | – | –
4 | N#Cc1c(N)n(-c2nc3ccccc3s2)c(=O)c2cc([N+](=O)[O-])ccc12 | > 56.8 | 40.3 | 66.8 µM | – | > 66.3 | 41.3 µM | > 52.1 µM | 50.5 µM | 14.3 | 52.6 | – | –
5 | O=CC12CCCN1CCC2 | > 100 | > 100 | > 100 µM | > 100 µM | > 100 | – | > 100 µM | > 100 µM | > 100 | > 100 | – | –
6 | Oc1[nH]c2ccccc2c1N=Nc1nc(-c2ccccc2)cs1 | > 100 | > 100 | – | > 100 µM | > 100 | > 100 µM | 51.8 µM | 99.7 µM | > 100 | > 100 | – | –
7 | CC(C)=C[C@@H]1C[C@H](C)[C@H]2CC[C@H](C)[C@H]3C(=O)C(O)=C(C)C(=O)[C@]123 | > 100 | – | > 100 µM | > 100 µM | > 100 | > 100 µM | > 100 µM | > 100 µM | > 100 | > 100 | – | –
8 | COc1c(-c2nc3nc(N4CCN(C)CC4)ccc3[nH]2)cc(OC)c2c1nc(CCl)n2C | 79.6 | 29.3 | 23.1 µM | 36.8 µM | > 100 | – | 28.2 µM | 46.1 µM | 32.9 | 66.1 | – | –
9 | Cc1ccc(C(=O)C2CC3(CCC2(O)c2ccc(C)cc2)CC(=O)Nc2ccccc2C3=O)cc1 (stereo not given) | > 100 | > 100 | > 100 µM | > 100 µM | – | > 100 µM | > 100 µM | > 100 µM | > 100 | > 100 | – | –
10 | N/N=C(\N)SCc1ccc(N=C=S)cc1 | > 100 | > 100 | > 100 µM | > 100 µM | > 100 | – | > 100 µM | > 100 µM | > 100 | – | – | –
11 | C/C(=C\CNc1ncnc2c1ncn2CCC#N)CO | > 100 | – | > 100 µM | > 100 µM | > 100 | > 100 µM | > 100 µM | > 100 µM | > 100 | > 100 | – | –
12 | COC1=C(C)C(=O)C2=C(C1=O)C1C3CC4=C(C(=O)C(OC)=C(C)C4=O)C(CNC(=O)C(C)=O)N3C(C#N)C(C2)N1C (stereo not given) | – | – | 0.000825 µM and 0.0075 µM | 0.199 µM and 0.0948 µM | – | 0.359 µM and 0.379 µM | 0.195 µM and 0.0778 µM | 0.0127 µM and 0.0154 µM | – | – | 0.000111 | 0.0742
13 | O=C1CSC(c2cccc(Oc3ccccc3)c2)N1c1cc(Cl)ccc1Cl (stereo not given) | > 100 | 36.3 | 31.5 µM | – | 36.9 | 23 µM | 52.5 µM | 43.3 µM | 50.5 | 46.7 | – | –
14 | CCOC(=O)c1c(SCCN(CC)CC)n(-c2ccccc2)c(=S)n(-c2ccccc2)c1=O | 9.42 | 30.1 | 9.1 µM | 13.2 µM | 3.17 | – | 4.1 µM | 9.04 µM | 12.6 | 41.1 | – | –
15 | Cc1ccc(C)c(C(=O)CC2OC(O)C(Cl)C2Cl)c1 (stereo not given) | > 100 | > 100 | > 100 µM | > 100 µM | – | – | – | – | > 100 | > 100 | – | –
16 | O=C(C[N+]1(c2ccccc2)CCOCC1)c1ccccc1 | > 100 | > 100 | > 100 µM | > 100 µM | > 100 | – | > 100 µM | > 100 µM | > 100 | > 100 | – | –
17 | CCc1nc2cc(F)ccc2[nH]c1=O | > 100 | > 100 | > 100 µM | – | > 100 | > 100 µM | > 100 µM | > 100 µM | > 100 | > 100 | – | –
18 | O=[N+]([O-])c1cccc2c1[nH]c1c(-c3ccccc3)nccc12 | > 42.5 | 3 | 9.04 µM | 11.4 µM | – | > 24.8 µM | – | – | 10.4 | 5.33 | – | –
19 | Nc1nc2c(ccc3ccccc32)[nH]1 | > 10 | > 10 | > 10 µM | > 10 µM | – | > 10 µM | > 10 µM | > 10 µM | > 10 | > 10 | – | –
20 | Cc1c(N(Cc2ccccc2)Cc2ccccc2)nc(S(C)(=O)=O)nc1S(C)(=O)=O | 29 | 30.6 | 3.16 µM | 3.21 µM | – | – | – | – | 3.67 | 25.8 | – | –
21 | CC(=O)Oc1cc(OC(C)=O)c2c(c1C)CC[C@@H]1[C@@H]2CC[C@]2(C)[C@@H](OC(C)=O)CC[C@@H]12 | 34.7 | – | 34.7 µM | 34.4 µM | 34.8 | 34.1 µM | 29 µM | 30.5 µM | 29.8 | 34.2 | – | –
22 | NS(=O)(=O)C1CCCCC1C(=O)NNC(=O)C(=O)Nc1nc(=S)[nH][nH]1 (stereo not given) | > 100 | > 100 | > 100 µM | > 100 µM | – | – | – | – | > 100 | > 100 | – | –
23 | Cc1cccc2c1Oc1ncccc1C2NC(=O)CN(C)C (stereo not given) | > 10 | > 10 | > 10 µM | > 10 µM | > 10 | > 10 µM | > 10 µM | – | > 10 | > 10 | – | –
24 | Nn1c(=S)[nH]nc(/C=C/c2c(O)ccc3ccccc23)c1=O | 71.2 | > 100 | 26.2 µM | 5.56 µM | > 100 | 12.6 µM | > 100 µM | – | 21.9 | – | – | –
